Assay results from patent US7001587B2, “Measurement of protein synthesis rates in humans and experimental systems by use of isotopically labeled water” (The Regents of the University of California, priority 2001, dated 2006).
Like-named read-outs stand apart in the source and are kept apart here. Blank lines part the entries; values can stand above or below the compound they belong to.

Assays:
human subjects = assay: Tolerability of daily oral ^2H2O in human subjects; type: in vivo; conditions: human subjects (healthy and HIV/AIDS) drinking 50–100 ml daily for 10–12 weeks
rats = assay: Tolerability of 4% ^2H2O drinking water in rats; type: in vivo; conditions: rats given 4% ^2H2O as drinking water
[1] = test system: humans and experimental animals; assay: Long-term maintenance of high body water ^2H2O enrichment, toxicity; type: in vivo; conditions: 1–5% of total body water labeled, weeks or months, >100 people and experimental animals
Excerpt: Relatively high body water enrichments of ^2H2O (e.g., 1–5% of the total body water is labeled) have been achieved using the techniques of the invention. […] This finding in a large number of human subjects (>100 people) is contrary to previous concerns about vestibular toxicities at high doses of ^2H2O. Applicants have discovered that as long as rapid changes in body water enrichment are prevented (e.g., by initial administration in small, divided doses), high body water enrichments of ^2H2O can be maintained with no toxicities. Previous dosing of ^2H2O in humans, for other purposes (e.g., measurement of fatty acid or cholesterol synthesis or gluconeogenesis) have typically used lower doses and achieved lower body water enrichment. The low expense of commercially available ^2H2O allows long-term maintenance of enrichments in the 1–5% range at relatively low expense (e.g., lower cost for 2 months labeling at 2% ^2H2O enrichment, and thus 7–8% enrichment in the alanine precursor pool (FIGS. 2A–B), than for 12 hours labeling of ^2H-leucine at 10% free leucine enrichment, and thus 7–8% enrichment in leucine precursor pool for that period).

[2] = rat, in vivo
Excerpt: The ^2H2O labeling protocol consisted of an initial intraperitoneal (ip) injection of 99.9% ^2H2O, to achieve ca. 2.5% body water enrichment (assuming total body water to be 60% of body weight) followed by administration of 4% ^2H2O in drinking water. For labeling of rats in utero, 4% drinking water was started while the male and female adult rats were housed together for mating (i.e. before pregnancy) and the 4% ^2H2O drinking water was continued through the pregnancy and post-delivery period.
The ^2H2O enrichment of body water was measured by a GC/MS technique that we have described elsewhere (Neese et al., Analytic Biochem 298(2):189–95, 2001). Briefly, the hydrogen atoms from water (10 μL) were chemically transferred to acetylene by reaction with calcium carbide in a sealed vial. Acetylene gas was then derivatized by injection into another sealed vial containing 0.5 ml Br2 (0.1 mM) dissolved in CCl4, followed by quenching of remaining Br2 with cyclohexene. The resulting tetrabromoethane was dissolved in CCl4 and was analyzed by GC/MS, using a DB-225 column (30 m, J&W, Folsom, Calif.) at 180° C., with methane chemical ionization (C.I.). The ions at m/z 265 and 266 were analyzed using selected ion monitoring. These ions represent the M0 and M1 mass isotopomers of the C2H2Br3^+ fragment (^79Br^79Br^81Br isotopologue). The enrichments of ^2H2O in water samples were calculated by comparison to standard curves generated by mixing 100% ^2H2O with unlabeled H2O in known proportions (Neese et al., Analytic Biochem 298(2):189–95, 2001).

[3] = cited from earlier work
[4] = In vitro ^2H label exchange / label stability studies; type: physicochemical; conditions: acid-hydrolysis conditions used for proteins (6N HCl)
bone collagen = assay: Bone collagen synthesis rate (ks) in ovariectomized rats by ^2H2O labeling; type: in vivo; conditions: ovariectomized female rats, pellet 200 μg
Protocol: The fractional synthesis or replacement rate (ks) of proteins or peptides may be determined by application of the continuous labeling, precursor-product formula: [formula] where A^∞ represents the asymptotic or plateau value of the amino acid I.E. (isotopic enrichment) possible under the labeling conditions present and AA(protein)t represents the measured protein-bound amino acid at time t.
Ovariectomy was performed in adult female rodents as described (9). After allowing 3 weeks for recovery from surgery, the rats received either estradiol by subcutaneous pellet (200 μg) or sham placement of pellet. ^2H2O labeling was initiated at the time of pellet placement and continued for 2 weeks, at which time the animals were sacrificed and bone was collected.
Rats were killed every 1–2 weeks during a 10-week period of ^2H2O administration. The rear left femur was collected and was dissected free of soft tissue. Bone marrow and trabecular bone were removed using a needle with sharp cutting surface (ref: Bone 2000). After washing 3 times with water, the bone was splintered and powdered under liquid N2 in a Spex mill and defatted with chloroform:methanol (1:1, v:v). After drying, the powdered bone was subjected to acid hydrolysis in 6N HCl (110° C., 24 hr). The free AA were dried under N2 gas and derivatized for analysis by gas chromatography/mass spectrometry (GC/MS). […]

Compound: [2H]O[2H] [^2H2O]
adverse effects or toxicities (human subjects): No adverse effects or toxicities were observed
growth and signs of toxicity (rats): grew normally and exhibited no signs of toxicity
toxicity at maintained body water enrichment [1]: without any evidence of toxicity
Body ^2H2O Enrichment (%) [2]: 2.6%
measured ^2H2O enrichment in maternal blood [2]: 2.4%
half-life ([3]; turnover of body water pool): 14400 to 20200 min

Compound: ^2H-glucose
half-life ([3]; in vivo): 20 min

Compound: ^2H-leucine
half-life ([3]; in vivo): < 30 min

loss of ^2H-label [4]: no loss of ^2H-label was observed
Compound: [2H]C([2H])(N)C(=O)O [^2H2-labeled glycine]

Compound: C[C@]12CC[C@@H]3c4ccc(O)cc4CC[C@H]3[C@@H]1CC[C@@H]2O [estrogen, estradiol]
ks of bone collagen (bone collagen; 2 weeks ^2H2O labeling): 0.008 day⁻¹
decrease in ks of bone collagen (bone collagen; 2 weeks, compared to vehicle-implanted ovariectomized rats): 35–40%

loss of ^2H-label [4]: no loss of ^2H-label was observed
Compound: [2H]C(C)(N)C(=O)O (stereo not drawn) [^2H1-labeled alanine]
